Test results reported in paper PMC6337650 (Molecules, 2018).

Legend:
HCT-116 cells [1] = assay: Colony formation assay; format: cell-based; settings: Homo sapiens, HCT-116, 168 h, 7 days, read-out: inhibition rate of colony formation
Procedure: Exponentially growing determined HCT-116 cells (6 × 10^2 per well) were plated in 6-well plates with the Roswell Park Memorial Institute (RPMI) 1640 culture medium (Gibco, USA) containing with 10% fetal bovine serum (FBS) (Gibco, Waltham, MA, USA). After an overnight incubation, the culture medium was removed and replaced fresh medium. Then, the cells were treated with various concentrations of compound 5d (5, 10 and 15 μM) dissolved in DMSO. Some cells were treated with DMSO only as a negative control. The cells were then incubated for another 7 days. Finally, the cells were fixed with 4% paraformaldehyde for 30 min and stained with 0.1% crystal violet for 15 min at room temperature, after which, the staining was washed with PBS until the colonies were totally cleared.

HCT-116 cells [2] = assay: Cell cycle analysis by flow cytometry (PI); format: cell-based, human; settings: 24 h; for proportion of cells in the S phase: control 18.64%; for proportion of cells in the G1 phase: control 70.67%
Procedure: HCT-116 cells were plated in 6-well plates (5.0 × 10^5 cells per well) and incubated at 37 °C for 24 h. Exponentially growing cells were then incubated with compound 5d at 5 and 15 µM. After 24 h, untreated cells (control) or cells treated with compound 5d were centrifuged at 1000 rpm for 10 min and then fixed in 70% ethanol at −20 °C for at least 24 h. The cells were subsequently resuspended in phosphate-buffered saline (PBS) containing 0.1 mg/mL of RNase A and 5 µg/mL propidium iodide (PI). The cellular DNA content for the cell cycle distribution analysis was measured by flow cytometry using a FACSCalibur flow cytometer with Cell Quest software (Becton-Dickinson, Franklin Lakes, NJ, USA), plotting at least 30,000 events per sample. The percentage of cells in the G1, S and G2 phases of the cell cycle were determined using the ModFit LT version 4.0 software package (Verity Software, Topsham, ME, USA).

With `Cc1ccc(-n2cc(CNC(=O)COC(=O)[C@]3(C)CCC[C@@]4(C)[C@@H]5CC[C@@]6(C)C[C@]5(CC[C@@H]43)CC6=O)nn2)cc1` [Compound 5d, 2-oxo-2-(((1-(p-tolyl)-1H-1,2,3-triazol-4-yl)methyl)amino)ethyl(4R,4aS,6aR,9S,11aR,11bS)-4,9,11b-trimethyl-8-oxotetradecahydro-6a,9-methanocyclohepta[a]naphthalene-4-carboxylate] the inhibition at 15 µM (HCT-116 cells [1]) was 84%, the “proportion of cells in the S phase” value (HCT-116 cells [2]; 5 μM) was 25.70% and the “proportion of cells in the G1 phase” value (HCT-116 cells [2]; 5 μM) was 51.67%. The “proportion of cells in the S phase” value (HCT-116 cells [2]; 15 μM) was 42.31% and the “proportion of cells in the G1 phase” value (HCT-116 cells [2]; 15 μM) was 41.32%.
